Tests used:
[1] = target: GABAa receptor (benzodiazepine receptor); assay: GABAa receptor binding assay (3H-RO15-1788 [3H-Flumazenil] displacement, rat cortical tissue homogenate); conditions: radioligand 0.5 nM 3H-RO15-1788 (3H-Flumazenil), 30 min at 4° C.
Protocol: The pharmaceutical utility of compounds of this invention are indicated by the following assay for GABAa receptor binding activity.
Assays are carried out as described in Thomas and Tallman (J. Bio. Chem. 156: 9838-9842, J. Neurosci. 3: 433-440, 1983). Rat cortical tissue is dissected and homogenized in 25 volumes (w/v) of 0.05 M Tris HCl buffer (pH 7.4 at 4° C.). The tissue homogenate is centrifuged in cold (4° C.) at 20,000×g for 20′. The supernatant is decanted and the pellet is rehomogenized in the same volume of buffer and again centrifuged at 20,000×g. The supernantant is decanted and the pellet is frozen at −20° C. overnight. The pellet is then thawed and rehomogenized in 25 volume (orginal wt/vol) of buffer and the procedure is carried out twice. The pellet is finally resuspended in 50 volumes (w/vol of 0.05 M Tris HCl buffer (pH 7.4 at […]).
Incubations contain […] of tissue homogenate, […] of radioligand 0.5 nM (^3H-RO15-1788 [^3H-Flumazenil] specific activity 80 Ci/mmol), drug or blocker and buffer to a total volume of […]. Incubations are carried for 30 min at 4° C. then are rapidly filtered through GFB filters to separate free and bound ligand. Filters are washed twice with fresh 0.05 M Tris HCl buffer (pH 7.4 at 4° C.) and counted in a liquid scintillation counter. 1.0 mM diazepam is added to some tubes to determine nonspecific binding. Data are collected in triplicate determinations, averaged and % inhabition of total specific binding is calculated. Total Specific Binding=Total−Nonspecific. In some cases, the amounts of unlabeled drugs is varied and total displacement curves of binding are carried out.

Row | SMILES | melting point | Ki [1]
1 | CC1CC(=O)c2c(C(=O)Nc3cccnc3)c[nH]c2C1 (stereo not shown) [Example 3(ll), N-(3-Pyridyl)-4-oxo-6-methyl-4,5,6,7-tetrahydro-1H-indole-3-carboxamide] | 225 to 227 °C | 
2 | COc1cccc(NC(=O)c2c[nH]c3c2C(=O)CC(C)C3)c1 (stereo not shown) [Example 3(u), N-(3-Methoxyphenyl)-4-oxo-6-methyl-4,5,6,7-tetrahydro-1H-indole-3-carboxamide] | 234 to 235 °C | 
3 | COc1ccc(NC(=O)c2c[nH]c3c2C(=O)CC(C)(C)C3)cc1 [Compound 3, N-(4-Methoxyphenyl)-4-oxo-6,6-dimethyl-4,5,6,7-tetrahydro-1H-indole-3-carboxamide] |  | 0.013 µM
4 | COc1ccc(NC(=O)c2c[nH]c3c2C(=O)CC(C)(C)C3)c(F)c1 [Example 3(i), N-(2-Fluoro-4-methoxyphenyl)-4-oxo-6,6-dimethyl-4,5,6,7-tetrahydro-1H-indole-3-carboxamide] | 213 to 215 °C | 
5 | CCOc1ccc(NC(=O)c2c[nH]c3c2C(=O)CC(C)C3)c(F)c1 (stereo not shown) [Example 3(bb), N-(2-Fluoro-4-ethoxyphenyl)-4-oxo-6-methyl-4,5,6,7-tetrahydro-1H-indole-3-carboxamide] | 224 to 225 °C | 
6 | CC1CC(=O)c2c(C(=O)Nc3ccc4ccccc4n3)c[nH]c2C1 (stereo not shown) [Compound 10, N-(2-Quinolinyl)-4-oxo-6-methyl-4,5,6,7-tetrahydro-1H-indole-3-carboxamide] | 273 to 275 °C | 0.012 µM
7 | COc1ccc(NC(=O)c2c[nH]c3c2C(=O)CC(C)C3)c(O)c1 (stereo not shown) [Example 3(x), N-(2-Hydroxy-4-methoxyphenyl)-4-oxo-6methyl-4,5,6,7-tetrahydro-1H-indole-3-carboxamide] | 236 to 238 °C | 
8 | CC1CC(=O)c2c(C(=O)Nc3ccccc3)c[nH]c2C1 (stereo not shown) [Compound 4, N-Phenyl-4-oxo-6-methyl-4,5,6,7-tetraydro-1H-indole-3-carboxamide] | 278 to 279 °C | 0.001 µM
9 | CC1CC(=O)c2c(C(=O)Nc3ccc(O)c(O)c3)c[nH]c2C1 (stereo not shown) [Example 3(cc), N-(3,4-Dihydroxyphenyl)-4-oxo-6-methyl-4,5,6,7-tetrahydro-1H-indole-3-carboxamide] | 267 to 269 °C | 
10 | Cc1ccc(NC(=O)c2c[nH]c3c2C(=O)CC(C)C3)c(O)c1 (stereo not shown) [Example 3(dd), N-(2-Hydroxy-4-methylphenyl)-4-oxo-6-methyl-4,5,6,7-tetrahydro-1H-indole-3-carboxamide] | 258 to 260 °C | 
11 | CC1(C)CC(=O)c2c(C(=O)Nc3cccc(F)c3)c[nH]c2C1 [Example 3(b), N-(3-Fluorophenyl)-4-oxo-6,6-dimethyl-4,5,6,7-tetrahydro-1H-indole-3-carboxamide] | 259 to 261 °C | 
12 | COc1ccc(NC(=O)c2c[nH]c3c2C(=O)CC(C)C3)c(F)c1 (stereo not shown) [Compound 6, N-(2-Fluoro-4-methoxyphenyl)-4-oxo-6-methyl-4,5,6,7-tetrahydro-1H-indole-3-carboxamide] | 217 to 219 °C | 0.001 µM
13 | CC1(C)CC(=O)c2c(C(=O)Nc3ccc(O)cc3F)c[nH]c2C1 [Example 3(l), N-(2-Fluoro-4-hydroxyphenyl)-4-oxo-6,6-dimethyl-4,5,6,7-tetrahydro-1H-indole-3-carboxamide] | 225 to 227 °C | 
14 | CC1(C)CC(=O)c2c(C(=O)Nc3ccc4cccnc4n3)c[nH]c2C1 [Compound 8, N-(1,8-Napthyridin-2yl)-4-oxo-6,6-dimethyl-4,5,6,7-tetrahydro-1H-indole-3-carboxamide] | 389 to 390 °C | 0.08 µM
15 | CC1(C)CC(=O)c2c(C(=O)Nc3ccsc3)c[nH]c2C1 [Compound 7, N-(3-Thienyl)-4-oxo-6,6-dimethyl-4,5,6,7-tetrahydro-1H-indole-3-caboxamide] |  | 0.01 µM
16 | CC1CC(=O)c2c(C(=O)Nc3ccc(F)cc3)c[nH]c2C1 (stereo not shown) [Example 3(t), N-(4-Fluorophenyl)-4-oxo-6-methyl-4,5,6,7-tetrahydro-1H-indole-3-carboxamide] | 262 to 264 °C | 
17 | CC1(C)CC(=O)c2c(C(=O)Nc3ccccc3)c[nH]c2C1 [Compound 1, N-Phenyl-4-oxo-6,6-dimethyl-4,5,6,7-tetrahydro-1H-indole-3-carboxamide] |  | 0.021 µM
18 | COc1ccc(NC(=O)c2c[nH]c3c2C(=O)CC(C)C3)cc1 (stereo not shown) [Example 3(y), N-(4-Methoxyphenyl)-4-oxo-6-methyl-4,5,6,7-tetrahydro-1H-indole-3-carboxamide] | 260 to 261 °C | 
19 | COc1ccncc1NC(=O)c1c[nH]c2c1C(=O)CC(C)(C)C2 [Example 3(ii), N-(4-Methoxy-3-pyridyl)-4-oxo-6,6-dimethyl-4,5,6,7-tetrahydro-1H-indole-3-carboxamide] | 217 to 218 °C | 
20 | CC1(C)CC(=O)c2c(C(=O)Nc3cccnc3)c[nH]c2C1 [Example 3(hh), N-(3-Pyridyl)-4-oxo-6,6-dimethyl-4,5,6,7-tetrahydro-1H-indole-3-carboxamide] | 237 to 239 °C | 
21 | CC1CC(=O)c2c(C(=O)Nc3cccc(F)c3)c[nH]c2C1 (stereo not shown) [Example 3(s), N-(3-Fluorophenyl)-4-oxo-6-methyl-4,5,6,7-tetrahydro-1H-indole-3-carboxamide] | 302 to 303 °C | 
22 | CC1CC(=O)c2c(C(=O)Nc3ccccc3F)c[nH]c2C1 (stereo not shown) [Compound 5, N-(2-Fluorophenyl)-4-oxo-6-methyl-4,5,6,7-tetrahydro-1H-indole-3-carboxamide] | 264 to 265 °C | 0.0005 µM
23 | CC1CC(=O)c2c(C(=O)Nc3ccncc3)c[nH]c2C1 (stereo not shown) [Example 3(mm), N-(4-Pyridyl)-4-oxo-6-methyl-4,5,6,7-tetrahydro-1H-indole-3-carboxamide] | 280 to 290 °C | 
24 | CC1(C)CC(=O)c2c(C(=O)Nc3ccc(F)cc3)c[nH]c2C1 [Example 3(c), N-(4-Fluorophenyl)-4-oxo-6,6-dimethyl-4,5,6,7-tetrahydro-1H-indole-3-carboxamide] | 268 to 270 °C | 
25 | COc1ccc(NC(=O)c2c[nH]c3c2C(=O)CC(C)(C)C3)cc1O [Example 3(h), N-(3-Hydroxy-4-methoxyphenyl)-4-oxo-6,6-dimethyl-4,5,6,7-tetrahydro-1H-indole-3-carboxamide] | 282 to 284 °C | 
26 | CC1CC(=O)c2c(C(=O)Nc3ccc(O)cc3)c[nH]c2C1 (stereo not shown) [Example 3(v), N-(4-Hydroxyphenyl)-4oxo-6-methyl-4,5,6,7-tetrahydro-1H-indole-3-carboxamide] | 320 °C | 
27 | COc1ccc(NC(=O)c2c[nH]c3c2C(=O)CC(C)(C)C3)c(O)c1 [Example 3(g), N-(2-Hydroxy-4-methoxyphenyl)-4-oxo-6,6-dimethyl-4,5,6,7-tetrahydro-1H-indole-3-carboxamide] | 190 to 192 °C | 
28 | CC1CC(=O)c2c(C(=O)Nc3ccc4cccnc4n3)c[nH]c2C1 (stereo not shown) [Compound 9, N-(1,8-Napthyridin-2-yl)-4-oxo-6-methyl-4,5,6,7-tetahydro-1H-indole-3-carboxamide] |  | 0.004 µM
29 | CC1(C)CC(=O)c2c(C(=O)Nc3ccccc3F)c[nH]c2C1 [Compound 2] |  | 0.012 µM

From patent US6720339B2, “Certain fused pyrrolecarboxamides; a new class of GABA brain receptor ligands” (Neurogen Corporation, priority 1996, dated 2004)
